Assays:
Assay in all cases: KINOMEscan competition binding
Conditions in all cases: compound 10.0 µM
PRKAA1 (human) = PRKAA1 (human) (UniProt Q13131)
PTK6 (human) = PTK6 (human) (UniProt Q13882)
TYRO3 (human) = TYRO3 (human) (UniProt Q06418)
STK17B (human) = STK17B (human) (UniProt O94768)
MYLK2 (human) = MYLK2 (human) (UniProt Q9H1R3)
NEK1 (human) = NEK1 (human) (UniProt Q96PY6)
RIOK2 (human) = RIOK2 (human) (UniProt Q9BVS4)
DYRK1B (human) = DYRK1B (human) (UniProt Q9Y463)
PAK2 (human) = PAK2 (human) (UniProt Q13177)
ANKK1 (human) = ANKK1 (human) (UniProt Q8NFD2)
TLK2 (human) = TLK2 (human) (UniProt Q86UE8)
EPHB3 (human) = EPHB3 (human) (UniProt P54753)
EPHA7 (human) = EPHA7 (human) (UniProt Q15375)
MAPK11 (human) = MAPK11 (human) (UniProt Q15759)
HIPK1 (human) = HIPK1 (human) (UniProt Q86Z02)
CSNK2A2 (human) = CSNK2A2 (human) (UniProt P19784)
PIP4K2B (human) = PIP4K2B (human) (UniProt P78356)
PRKCE (human) = PRKCE (human) (UniProt Q02156)
Chain of PRKCE (human) (Q02156 whole entry, looked up): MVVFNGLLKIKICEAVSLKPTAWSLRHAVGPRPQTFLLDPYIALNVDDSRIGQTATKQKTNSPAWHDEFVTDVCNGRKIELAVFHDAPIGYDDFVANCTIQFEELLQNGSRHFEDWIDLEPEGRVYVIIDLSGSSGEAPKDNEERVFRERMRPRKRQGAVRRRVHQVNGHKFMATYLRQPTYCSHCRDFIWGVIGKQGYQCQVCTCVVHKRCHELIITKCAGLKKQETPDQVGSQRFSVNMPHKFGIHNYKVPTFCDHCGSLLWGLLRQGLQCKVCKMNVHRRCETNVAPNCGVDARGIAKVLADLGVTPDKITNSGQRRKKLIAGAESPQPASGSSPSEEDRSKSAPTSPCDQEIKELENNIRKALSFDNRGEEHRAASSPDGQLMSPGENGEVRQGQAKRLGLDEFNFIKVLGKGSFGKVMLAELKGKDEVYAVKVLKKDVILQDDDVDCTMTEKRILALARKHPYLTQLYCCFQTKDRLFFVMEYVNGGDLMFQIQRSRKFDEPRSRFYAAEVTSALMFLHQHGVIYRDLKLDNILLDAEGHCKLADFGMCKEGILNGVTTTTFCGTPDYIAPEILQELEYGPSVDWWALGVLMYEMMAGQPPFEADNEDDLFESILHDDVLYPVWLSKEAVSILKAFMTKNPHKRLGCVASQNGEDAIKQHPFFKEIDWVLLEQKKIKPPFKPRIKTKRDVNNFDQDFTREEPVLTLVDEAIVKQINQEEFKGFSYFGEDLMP

PRKX (human) = PRKX (human) (UniProt P51817)
MKNK1 (human) = MKNK1 (human) (UniProt Q9BUB5)
Chain of MKNK1 (human) (Q9BUB5 whole entry, looked up): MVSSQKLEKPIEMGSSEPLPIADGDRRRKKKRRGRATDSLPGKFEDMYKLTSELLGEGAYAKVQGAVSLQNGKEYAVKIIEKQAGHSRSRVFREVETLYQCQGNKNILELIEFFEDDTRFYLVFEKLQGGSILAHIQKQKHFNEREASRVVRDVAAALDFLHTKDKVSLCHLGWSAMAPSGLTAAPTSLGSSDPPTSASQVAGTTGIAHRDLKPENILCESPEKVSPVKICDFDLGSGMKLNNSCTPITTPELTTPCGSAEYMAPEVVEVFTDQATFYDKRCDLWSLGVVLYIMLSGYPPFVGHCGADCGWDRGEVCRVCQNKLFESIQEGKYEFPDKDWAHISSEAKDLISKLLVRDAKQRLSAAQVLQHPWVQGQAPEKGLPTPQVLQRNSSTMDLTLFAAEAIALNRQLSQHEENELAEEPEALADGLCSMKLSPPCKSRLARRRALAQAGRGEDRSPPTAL

FLT3 (human) = FLT3 (human) (UniProt P36888)
RPS6KA5 KD1 (human) = RPS6KA5 KD1 (human) (UniProt O75582)
LATS1 (human) = LATS1 (human) (UniProt O95835)
CLK4 (human) = CLK4 (human) (UniProt Q9HAZ1)
AURKB (human) = AURKB (human) (UniProt Q96GD4)
ROS1 (human) = ROS1 (human) (UniProt P08922)
STK38L (human) = STK38L (human) (UniProt Q9Y2H1)
[1] = system: FLT3 (human), P36888 [N841I]
DCLK2 (human) = DCLK2 (human) (UniProt Q8N568)
TAOK1 (human) = TAOK1 (human) (UniProt Q7L7X3)
MARK2 (human) = MARK2 (human) (UniProt Q7KZI7)
Chain of MARK2 (human) (Q7KZI7 whole entry, looked up): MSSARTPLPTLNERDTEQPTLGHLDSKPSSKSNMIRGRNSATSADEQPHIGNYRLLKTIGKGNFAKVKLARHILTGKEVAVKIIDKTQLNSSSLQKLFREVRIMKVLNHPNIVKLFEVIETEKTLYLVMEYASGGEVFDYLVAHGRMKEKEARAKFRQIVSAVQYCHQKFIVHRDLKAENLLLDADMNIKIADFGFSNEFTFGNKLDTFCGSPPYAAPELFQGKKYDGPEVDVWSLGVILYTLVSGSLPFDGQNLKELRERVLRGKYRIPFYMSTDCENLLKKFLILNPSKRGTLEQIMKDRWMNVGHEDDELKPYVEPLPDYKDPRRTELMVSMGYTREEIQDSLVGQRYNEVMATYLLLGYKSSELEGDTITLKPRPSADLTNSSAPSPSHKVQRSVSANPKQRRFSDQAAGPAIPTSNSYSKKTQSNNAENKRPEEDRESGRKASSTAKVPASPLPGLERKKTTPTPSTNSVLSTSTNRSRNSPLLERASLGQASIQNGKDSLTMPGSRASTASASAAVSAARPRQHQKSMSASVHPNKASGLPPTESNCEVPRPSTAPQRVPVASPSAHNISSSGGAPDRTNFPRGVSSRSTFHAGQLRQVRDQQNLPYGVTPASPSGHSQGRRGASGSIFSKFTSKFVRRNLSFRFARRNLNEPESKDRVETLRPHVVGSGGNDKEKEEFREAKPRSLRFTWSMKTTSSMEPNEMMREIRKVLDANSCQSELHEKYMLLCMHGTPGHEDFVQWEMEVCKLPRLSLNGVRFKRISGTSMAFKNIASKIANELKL

RPS6KA5 KD2 (human) = RPS6KA5 KD2 (human) (UniProt O75582)
[2] = system: FLT3 (human), P36888 [ITD]
PRKG1 (human) = PRKG1 (human) (UniProt Q13976)
Chain of PRKG1 (human) (Q13976 whole entry, looked up): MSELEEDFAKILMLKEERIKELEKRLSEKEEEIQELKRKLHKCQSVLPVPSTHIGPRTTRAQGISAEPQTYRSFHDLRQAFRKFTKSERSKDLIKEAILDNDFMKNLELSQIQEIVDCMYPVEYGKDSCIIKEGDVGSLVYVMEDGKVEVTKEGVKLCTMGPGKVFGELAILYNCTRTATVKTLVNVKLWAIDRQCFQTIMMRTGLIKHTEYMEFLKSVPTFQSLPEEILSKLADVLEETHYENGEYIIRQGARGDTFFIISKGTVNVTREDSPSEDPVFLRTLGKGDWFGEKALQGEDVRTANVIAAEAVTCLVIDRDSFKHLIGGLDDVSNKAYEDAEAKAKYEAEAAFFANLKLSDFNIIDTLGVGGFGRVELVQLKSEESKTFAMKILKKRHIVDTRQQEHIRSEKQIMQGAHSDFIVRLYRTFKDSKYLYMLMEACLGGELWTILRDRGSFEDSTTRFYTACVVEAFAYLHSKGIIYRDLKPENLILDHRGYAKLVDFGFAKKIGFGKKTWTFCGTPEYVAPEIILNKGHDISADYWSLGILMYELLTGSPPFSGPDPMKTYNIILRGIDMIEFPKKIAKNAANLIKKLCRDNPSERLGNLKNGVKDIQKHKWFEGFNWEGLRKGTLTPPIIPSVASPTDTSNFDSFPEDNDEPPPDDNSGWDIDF

MAPK13 (human) = MAPK13 (human) (UniProt O15264)
Chain of MAPK13 (human) (O15264 whole entry, looked up): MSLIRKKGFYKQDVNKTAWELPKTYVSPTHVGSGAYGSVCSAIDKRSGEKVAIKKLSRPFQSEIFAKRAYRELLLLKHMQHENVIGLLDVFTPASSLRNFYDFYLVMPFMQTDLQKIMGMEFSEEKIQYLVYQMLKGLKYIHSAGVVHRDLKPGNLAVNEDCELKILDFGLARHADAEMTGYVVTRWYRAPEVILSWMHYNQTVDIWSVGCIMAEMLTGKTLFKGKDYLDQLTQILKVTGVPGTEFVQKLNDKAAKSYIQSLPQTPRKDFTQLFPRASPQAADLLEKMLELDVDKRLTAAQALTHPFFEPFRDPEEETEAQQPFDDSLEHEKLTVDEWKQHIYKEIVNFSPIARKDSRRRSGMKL

KDR (human) = KDR (human) (UniProt P35968)
ALK (human) = ALK (human) (UniProt Q9UM73)
MAP4K5 (human) = MAP4K5 (human) (UniProt Q9Y4K4)
PLK1 (human) = PLK1 (human) (UniProt P53350)

Chain of NEK1 (human) (Q96PY6 whole entry, looked up): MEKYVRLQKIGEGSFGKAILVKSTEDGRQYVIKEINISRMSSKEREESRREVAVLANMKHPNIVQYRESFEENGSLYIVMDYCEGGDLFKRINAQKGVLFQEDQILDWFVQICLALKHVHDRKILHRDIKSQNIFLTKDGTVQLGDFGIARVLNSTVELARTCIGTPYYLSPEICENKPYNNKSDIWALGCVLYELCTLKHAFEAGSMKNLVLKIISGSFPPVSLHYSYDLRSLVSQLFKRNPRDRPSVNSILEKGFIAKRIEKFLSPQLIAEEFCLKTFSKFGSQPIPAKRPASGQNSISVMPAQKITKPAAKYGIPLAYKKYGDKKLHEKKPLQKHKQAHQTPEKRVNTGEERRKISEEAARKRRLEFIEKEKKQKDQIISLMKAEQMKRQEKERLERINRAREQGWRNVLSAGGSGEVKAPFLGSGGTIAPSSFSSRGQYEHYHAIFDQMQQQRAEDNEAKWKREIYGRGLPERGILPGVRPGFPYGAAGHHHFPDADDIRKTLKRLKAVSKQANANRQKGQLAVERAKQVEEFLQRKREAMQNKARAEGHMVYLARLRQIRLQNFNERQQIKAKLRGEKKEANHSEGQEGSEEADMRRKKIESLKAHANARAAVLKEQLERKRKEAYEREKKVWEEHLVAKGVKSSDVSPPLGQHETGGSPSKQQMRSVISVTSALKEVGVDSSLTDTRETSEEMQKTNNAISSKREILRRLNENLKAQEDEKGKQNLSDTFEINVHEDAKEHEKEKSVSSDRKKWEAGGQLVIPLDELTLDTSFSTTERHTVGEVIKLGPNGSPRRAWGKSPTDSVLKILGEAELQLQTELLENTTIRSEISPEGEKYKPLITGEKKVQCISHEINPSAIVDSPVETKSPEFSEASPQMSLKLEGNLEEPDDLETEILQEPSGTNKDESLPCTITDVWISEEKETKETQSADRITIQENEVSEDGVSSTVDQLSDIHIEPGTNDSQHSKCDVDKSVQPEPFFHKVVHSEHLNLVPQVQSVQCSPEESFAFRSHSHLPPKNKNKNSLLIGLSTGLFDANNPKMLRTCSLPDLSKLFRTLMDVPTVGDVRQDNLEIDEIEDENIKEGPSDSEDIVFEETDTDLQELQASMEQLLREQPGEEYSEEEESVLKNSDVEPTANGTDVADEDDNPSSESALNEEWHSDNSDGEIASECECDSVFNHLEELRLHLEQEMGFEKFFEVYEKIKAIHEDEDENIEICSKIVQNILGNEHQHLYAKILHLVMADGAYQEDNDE
Chain of PRKAA1 (human) (Q13131 whole entry, looked up): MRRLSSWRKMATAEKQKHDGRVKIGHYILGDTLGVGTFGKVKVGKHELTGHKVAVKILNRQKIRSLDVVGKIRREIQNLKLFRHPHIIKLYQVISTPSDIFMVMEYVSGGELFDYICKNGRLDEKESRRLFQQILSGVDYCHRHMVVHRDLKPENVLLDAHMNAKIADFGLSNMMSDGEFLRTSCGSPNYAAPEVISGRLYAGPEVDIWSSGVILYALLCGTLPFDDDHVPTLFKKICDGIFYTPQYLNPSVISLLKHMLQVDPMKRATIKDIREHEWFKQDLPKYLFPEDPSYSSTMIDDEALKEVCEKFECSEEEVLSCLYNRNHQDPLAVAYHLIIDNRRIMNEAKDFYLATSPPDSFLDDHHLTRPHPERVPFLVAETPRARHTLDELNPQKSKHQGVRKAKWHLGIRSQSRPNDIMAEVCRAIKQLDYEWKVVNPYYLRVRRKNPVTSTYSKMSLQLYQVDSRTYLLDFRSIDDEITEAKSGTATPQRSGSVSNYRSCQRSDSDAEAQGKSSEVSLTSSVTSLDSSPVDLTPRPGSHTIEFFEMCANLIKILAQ

| Structure (SMILES) | kinase still bound, per cent of control (PRKAA1 (human)) [%] | kinase still bound, per cent of control (PTK6 (human)) [%] | kinase still bound, per cent of control (TYRO3 (human)) [%] | kinase still bound, per cent of control (STK17B (human)) [%] | kinase still bound, per cent of control (MYLK2 (human)) [%] | kinase still bound, per cent of control (NEK1 (human)) [%] | kinase still bound, per cent of control (RIOK2 (human)) [%] | kinase still bound, per cent of control (DYRK1B (human)) [%] | kinase still bound, per cent of control (PAK2 (human)) [%] | kinase still bound, per cent of control (ANKK1 (human)) [%] | kinase still bound, per cent of control (EPHB3 (human)) [%] | kinase still bound, per cent of control (EPHA7 (human)) [%] | kinase still bound, per cent of control (MAPK11 (human)) [%] | kinase still bound, per cent of control (HIPK1 (human)) [%] | kinase still bound, per cent of control (CSNK2A2 (human)) [%] | kinase still bound, per cent of control (PIP4K2B (human)) [%] | kinase still bound, per cent of control (PRKCE (human)) [%] | kinase still bound, per cent of control (PRKX (human)) [%] | kinase still bound, per cent of control (MKNK1 (human)) [%] | kinase still bound, per cent of control (FLT3 (human)) [%] | further results |
| --- | --- | --- | --- | --- | --- | --- | --- | --- | --- | --- | --- | --- | --- | --- | --- | --- | --- | --- | --- | --- | --- |
| CC[C@@H]1C(=O)N(C)c2cnc(Nc3ccc(C(=O)NC4CCN(C)CC4)cc3OC)nc2N1C1CCCC1 | 100 | 100 | 100 | 100 | 100 | 100 | 100 | 100 | 100 | 100 | 100 | 100 | 100 | 100 | 100 | 100 | 100 | 100 | 100 | 100 | kinase still bound, per cent of control (TLK2 (human)): 100%; kinase still bound, per cent of control (RPS6KA5 KD1 (human)): 100%; kinase still bound, per cent of control (LATS1 (human)): 100%; kinase still bound, per cent of control (CLK4 (human)): 100%; kinase still bound, per cent of control (AURKB (human)): 100%; kinase still bound, per cent of control (ROS1 (human)): 28%; kinase still bound, per cent of control (STK38L (human)): 100%; kinase still bound, per cent of control [1]: 100%; kinase still bound, per cent of control (DCLK2 (human)): 13%; kinase still bound, per cent of control (TAOK1 (human)): 100%; kinase still bound, per cent of control (MARK2 (human)): 100%; kinase still bound, per cent of control (RPS6KA5 KD2 (human)): 14%; kinase still bound, per cent of control [2]: 100%; kinase still bound, per cent of control (PRKG1 (human)): 100%; kinase still bound, per cent of control (MAPK13 (human)): 100% |
| CCOc1cc2ncc(C#N)c(Nc3ccc(OCc4ccccn4)c(Cl)c3)c2cc1NC(=O)/C=C/CN(C)C | 79 | 100 | 100 | 46 | 79 | 70 | 53 | 99 | 34 | 100 | 100 | 97 | 100 | 71 | 72 | 95 | 100 | 100 | 29 | 100 | kinase still bound, per cent of control (KDR (human)): 94%; kinase still bound, per cent of control (ALK (human)): 100%; kinase still bound, per cent of control (MAP4K5 (human)): 0.85%; kinase still bound, per cent of control (RPS6KA5 KD1 (human)): 100%; kinase still bound, per cent of control (LATS1 (human)): 90%; kinase still bound, per cent of control (PLK1 (human)): 57%; kinase still bound, per cent of control (CLK4 (human)): 100%; kinase still bound, per cent of control (AURKB (human)): 75%; kinase still bound, per cent of control (ROS1 (human)): 96%; kinase still bound, per cent of control (STK38L (human)): 100%; kinase still bound, per cent of control [1]: 64%; kinase still bound, per cent of control (DCLK2 (human)): 100%; kinase still bound, per cent of control (TAOK1 (human)): 83%; kinase still bound, per cent of control (MARK2 (human)): 86%; kinase still bound, per cent of control (RPS6KA5 KD2 (human)): 77%; kinase still bound, per cent of control [2]: 86%; kinase still bound, per cent of control (PRKG1 (human)): 94%; kinase still bound, per cent of control (MAPK13 (human)): 99% |

— the kinase profiling compilation of Christmann-Franck et al. (2016)
